Assay results as given in patent EP1434565B1, “USE OF GANODERIC ACIDS AS COSMETIC AGENTS” (YVES SAINT LAURENT PARFUMS, (Société Anonyme), priority 2001, dated 2003).

System: MMP1 (collagénase interstitielle humaine)
Assay: Amount of MMP-1 produced by PMA-stimulated fibroblasts (ELISA)
Assay type: cell-based, humains
Conditions: for inhibition at 0.04 %: ganoderic acids 0.04 %, versus témoin + PMA, read-out: diminution de la quantité MMP1; for activity at 0.04 %: read-out: % témoin +PMA; for MMP1 (ng/ml): 4 h pre-incubation, +PMA 0.1 µg/ml
Description: Les essais figurant au tableau 2 ci-après concernent la régulation d'une enzyme, la MMP1 (collagénase interstitielle humaine) appartenant aux métalloprotéinases, de la famille des protéases, enzymes dégradant la matrice extra-cellulaire, la MMP1 dégradant particulièrement le collagène natif.
Les essais, dont les résultats figurent au tableau 2, ont donc consisté à comparer l'activité de la DHEA et des acides ganodériques B, C2 et G sur la régulation de l'activité de la MMP1 après stimulation des fibroblastes par PMA.
• Fibroblastes humains normaux profonds (type R2Ad2), utilisé au 2e passage. • Culture: 37° C, 5 % CO2 • Milieu de croissance : milieu Tebu PM-1 • Milieu d'essai : DMEM/HAMF10, vol/vol (Invitrogen 21969035 / Invitrogen 31550-023) • Hepes 15 mM (Invitrogen 1563-056) • L-glutamine 2 mM (Invitrogen 25030024) • pénicilline 50 UI/ml streptomycine 50 µg/ml (Invitrogen 15070063) • sans sérum de veau foetal
• solution stock : 10 % dans l'éthanol puis dilution à 0.1 % dans une solution de BSA délipidée à 5 mg/ml final • dilutions : en milieu de culture stérile • concentration finale testée: 0.001 % (50 µg/ml BSA 1^e conc, final) Acide Ganodérique B • solution stock : 10 % en DMSO • dilutions : en milieu de culture stérile • concentration finale testée: 0.04 % (50 µg/ml BSA final) Acide Ganodérique C2 • solution stock : 10 % en DMSO • dilutions : en milieu de culture stérile • concentration finale testée: 0.04 % (50 µg/ml BSA final) Acide Ganodérique G • solution stock : 10 % en DMSO • dilutions : en milieu de culture stérile • concentration finale testée: 0.04 % (50 µg/ml BSA final)
Les cellules ont été ensemensées à 17000 cellules par puits, en plaques 96 puits, une plaque pour chaque temps de culture. Toutes les conditions en triplicata (3 puits de culture). Les cellules ont été pré-cultivées pendant 24 h en milieu sans SVF. Après 24 h de pré-culture, les milieux ont été remplacés par un milieu équivalent contenant) les produits à l'essai ou non (contrôles) ou la DHEA à 0.001 %. Après 4 h d'incubation, une solution 10 fois concentrée de « phorbol myristate acétate » (PMA, Sigma, 0.1 µg/ml final) a été ajoutée ou non (contrôles) et les cellules ont été cultivées pendant 6 h supplémentaires.
A la fin de chaque temps de culture, les milieux de culture ont été récupérés et congelés à -80 °C pour dosage de la quantité de MMP-1 et la viabilité des tapis cellulaires a été contrôlée en utilisant un test standard de réduction du MTT.
Le dosage de MMP-1 (collagénase interstitielle humaine) a été réalisé par ELISA, à l'aide d'un kit « BIOTRACK human MMP-1, ELISA system, Amersham RPN2610 », selon les directives du fournisseur.
Résumé des conditions testées : • Modèle : fibroblastes humains • Test : dosage quantité de MMP-1 produite (protéine, ELISA) • Milieux : sans sérum • Tests : produits à l'essai, DHEA 0.001 % ou contrôles non traités, pendant 4 h • Stimulation : ajout de PMA (ou non, contrôles) et culture pendant 6 h. Produits (selon viabilités sur fibroblastes): • A.G. B 0:04 %; • A.G. C2 0.04 %; • A.G. G 0.04 %; • DHEA 10 µg/ml
Les données brutes de comptage ont été transférées et traitées sous le logiciel PRISM® (Graph Pad Software).
Les comparaisons inter-groupes ont été réalisées par analyse de variance (ANOVA) à l'aide du test de comparaison multiple de Dunnett.

[1] = Fibroblast, ganoderic acid 0,04%, normal human fibroblasts, +PMA, 6h
[2] = ganoderic acid 0,04%, normal human fibroblasts, 6h, Témoin + PMA 17,89

CC(CC(=O)CC(C)C1CC(O)C2(C)C3=C(C(=O)CC12C)C1(C)CCC(O)C(C)(C)C1CC3O)C(=O)O (stereo not shown) [A. ganodérique C2, Acide Ganodérique C2]
inhibition at 0.04 % (Fibroblast, 6 h): ~30%
activity at 0.04 % [1]: 72%
MMP1 (ng/ml) [2]: 12,95 ng/ml

C[C@]12CC[C@H](O)CC1=CC[C@@H]1[C@@H]2CC[C@]2(C)C(=O)CC[C@@H]12 [DHEA, DéHydroEpiAndrostérone, reference compound]
MMP1 (ng/ml) (DHEA 0,001%, normal human fibroblasts, 6h, Témoin + PMA 10,54): 6,38 ng/ml
% témoin +PMA (DHEA 0,001%, normal human fibroblasts, +PMA, 6h, 360 min): 61%
activity at 0.001 % (Fibroblast, 6 h, read-out: % témoin +PMA, DHEA 0,001%, normal human fibroblasts, +PMA, 6h): 60%

CC(CC(=O)CC(C)C1CC(=O)C2(C)C3=C(C(=O)C(O)C12C)C1(C)CCC(O)C(C)(C)C1CC3O)C(=O)O (stereo not shown) [A. ganodérique G, Acide Ganodérique G]
inhibition at 0.04 % (Fibroblast, 6 h): > 40%
activity at 0.04 % [1]: 57%
MMP1 (ng/ml) [2]: 10,15 ng/ml
effets anti-vieillissement (régulation MMP1) (result in words, comparison between ganoderic acids B, C2 and G at 0.04 %): activité supérieure aux deux autres acides ganodériques

CC(CC(=O)CC(C)C1CC(=O)C2(C)C3=C(C(=O)CC12C)C1(C)CCC(O)C(C)(C)C1CC3O)C(=O)O (stereo not shown) [A. ganodérique B, Acide Ganodérique B]
inhibition at 0.04 % (Fibroblast, 6 h): ~30%
activity at 0.04 % [1]: 76%
MMP1 (ng/ml) [2]: 13,52 ng/ml
